Key:
Type in all cases: in vivo
sympathetic nerve = assay: RR interval by Holter ECG after oral GABA in Beagle dogs; conditions: 10 month old Beagle dogs
Procedure: Three 10 month old Beagle dogs were confined in darkness from 19:00 (7pm) until 7:00 (7am). An electrocardiogramr was obtained under free movement using a Holter ECG recorder (wireless installation-type ECG recorder). An electrocardiogram was obtained every 30 minutes for 1 minute. A capsule containing 300 mg/kg body weight of GABA was orally administered to each dog just before the dark period. As a control, an empty capsule was administered.
An RR interval (msec, inverse number of a heart rate) relative to the time that lapsed after administration was measured.

senior dogs [1] = assay: Dog food mixed with GABA fed to senior dogs, observation of age-related conditions; conditions: 2 weeks
Procedure: Dog food was mixed with GABA (30 mg/kg body weight). Mongrel dog A (17 years old) was fed this mixture once a day in the evening for 2 weeks. […] Dog food was mixed with GABA (30 mg/kg body weight). Mongrel dog B (14 years old) was fed this mixture once a day for 2 weeks. […] Dog food was mixed with GABA (30 mg/kg body weight). Toy poodle A (15 years old) was fed this mixture once a day for 2 weeks. […] Dog food was mixed with GABA (30 mg/kg body weight). Toy poodle B (12 years old) was fed this mixture once a day for 2 weeks. […] Dog food was mixed with GABA (30 mg/kg body weight). Pomeranian A (14 years old) was fed this mixture once a day for 2 weeks. […] Dog food was mixed with GABA (30 mg/kg body weight). Shiba Ken (Japanese breed) A (16 years old) was fed with this mixture once a day for 2 weeks.

senior dogs [2] = assay: Intravenous SKF 97541 in a senior dog, turning motion; conditions: Shiba Ken B (15 years old), single intravenous dose of from 0.01 to 0.1 mg/kg body weight
Procedure: SKF 97541 was intravenously administered once to Shiba Ken B (15 years old) at a dose of from 0.01 to 0.1 mg/kg body weight.

[3] = Mongrel dog B (14 years old), 30 mg/kg body weight in dog food once a day
[4] = Pomeranian A (14 years old), 30 mg/kg body weight in dog food once a day
[5] = Shiba Ken A (16 years old), 30 mg/kg body weight in dog food once a day
[6] = Toy poodle A (15 years old), 30 mg/kg body weight in dog food once a day
[7] = Toy poodle B (12 years old), 30 mg/kg body weight in dog food once a day

| SMILES | stimulus of the sympathetic nerve (sympathetic nerve; GABA 300 mg/kg body weight oral capsule) | average RR interval (inverse number of a heart rate) (sympathetic nerve; GABA 300 mg/kg body weight oral capsule before dark period, approximately 2 to 9 hours after administration, vs empty capsule) | forced and labored breathing (senior dogs [1]; Mongrel dog A (17 years old), 30 mg/kg body weight in dog food once a day in the evening) | drinking behaviour (senior dogs [1]; [3]) | leg trembling (senior dogs [1]; [3]) | mobility and general health (senior dogs [1]; [3]) | continuous sleeping all day long (senior dogs [1]; [4]) | desire to go for a walk (senior dogs [1]; [4]) | general health and activity level (senior dogs [1]; [4]) | ability to move around (senior dogs [1]; [5]) | mobility (senior dogs [1]; [5]) | behaviour towards owner (senior dogs [1]; [6]) | difficult breathing (senior dogs [1]; [6]) | sense of hearing and sense of smell, mobility and general health (senior dogs [1]; [6]) | mobility (senior dogs [1]; [7]) | walking (tottering steps before administration) (senior dogs [1]; [7]) | turning motion (senior dogs [2]) |
| --- | --- | --- | --- | --- | --- | --- | --- | --- | --- | --- | --- | --- | --- | --- | --- | --- | --- |
| NCCCC(=O)O [GABA, γ-aminobutyric acid] | stimulus of the sympathetic nerve was observed | shortened | disappeared | drank water on its own | disappeared | improvement in mobility and general health was observed | decreased | clearly showed signs that he wanted to go for a walk | improvement in general health and activity level was observed | able to move around easier and clearly with less pain | improvement in mobility was observed | sought out his owner and wanted to stay by him | decreased | improvement | improvement in mobility was observed | walked firmly with steady steps |  |
| CP(=O)(O)CCCN [SKF 97541, 3-aminopropyl(methyl)phosphinic acid] |  |  |  |  |  |  |  |  |  |  |  |  |  |  |  |  | eliminated at any dose |

— patent publication US20050106220A1, “Agent for improving mobility and general health of senior companion animals” (priority 2003, published 2005)
